Columns and labels:
[1] = 101 kPa, Liquid, Falling or rolling sphere viscometry
[2] = xn = mol fraction of the nth substance listed; conditions: 101 kPa, Liquid, Falling or rolling sphere viscometry

CCCCCC[n+]1ccn(C)c1.O=S(=O)([N-]S(=O)(=O)C(F)(F)F)C(F)(F)F
[1]
Conditions | viscosity [mPa·s]
288.2 K | 117.8
298.2 K | 70.4
308.2 K | 45.4
318.2 K | 31.23

CCCCCC[n+]1ccn(C)c1.O=S(=O)([N-]S(=O)(=O)C(F)(F)F)C(F)(F)F + ClC(Cl)Cl
viscosity [mPa·s], [2]
Conditions | 288.2 K | 298.2 K | 308.2 K | 318.2 K
x1 = 0.074 | 1.701 | 1.462 | 1.265 | 1.104
x1 = 0.186 | 4.556 | 3.667 | 3.002 | 2.5
x1 = 0.266 | 8.57 | 6.63 | 5.25 | 4.29
x1 = 0.418 | 20.36 | 14.63 | 10.96 | 8.5
x1 = 0.511 | 30.16 | 20.92 | 15.19 | 11.49
x1 = 0.565 | 38 | 25.55 | 18.18 | 13.58
x1 = 0.651 | 50.6 | 33.3 | 23.1 | 16.97
x1 = 0.707 | 60.6 | 38.9 | 26.6 | 19.16
x1 = 0.805 | 78.4 | 49.6 | 33.7 | 24
x1 = 0.906 | 95.7 | 59.1 | 39.5 | 27.7
x1 = 1 | 117.8 | 70.4 | 45.4 | 31.23
